What all share (test): two-electrode voltage clamp, Xenopus oocytes
Common to all, as to type: cell-based

The target in test [1] is T1, Asu-ACR-16 nAChR (Ascaris suum, UniProt A0A0K0QSL7).
T1 construct: homopentameric nAChR; full-length subunit cRNA injected in Xenopus laevis oocytes; no auxiliary subunit mentioned
T1 sequence (A0A0K0QSL7 1-504): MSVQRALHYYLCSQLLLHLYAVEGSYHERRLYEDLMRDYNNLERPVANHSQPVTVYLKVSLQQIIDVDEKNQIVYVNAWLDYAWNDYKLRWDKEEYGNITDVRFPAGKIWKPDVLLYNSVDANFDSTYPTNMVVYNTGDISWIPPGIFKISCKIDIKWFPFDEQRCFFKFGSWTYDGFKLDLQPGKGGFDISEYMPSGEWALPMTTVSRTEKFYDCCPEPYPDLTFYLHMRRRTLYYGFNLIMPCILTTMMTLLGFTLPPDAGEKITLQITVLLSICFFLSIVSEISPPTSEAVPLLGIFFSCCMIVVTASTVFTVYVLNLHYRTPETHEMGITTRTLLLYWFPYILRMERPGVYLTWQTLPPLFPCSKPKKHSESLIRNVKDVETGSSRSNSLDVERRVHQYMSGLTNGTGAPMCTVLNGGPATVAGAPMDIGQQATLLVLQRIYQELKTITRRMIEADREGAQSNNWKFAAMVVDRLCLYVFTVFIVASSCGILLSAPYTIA
The settings on record: non-competitive inhibition of ACh-evoked currents, -60 mV.

In test [2] the target is T1, Asu-ACR-16 nAChR.
The target in test [3] is T1, Asu-ACR-16 nAChR. The following applies: non-competitive antagonist of ACh-evoked currents, -60 mV.

Here are results for three molecules from article PMC12389580, “Neuromuscular System of Nematodes Is a Target of Synergistic Pharmacological Effects of Carvacrol and Geraniol” (Pharmaceuticals, 2025).

Structures are written as SMILES.

With `CC(C)=CCC/C(C)=C/CO` [geraniol], the “Emax of ACh at 100 μM geraniol (% of response to 100 μM ACh; control 97.63 ± 0.92%)” value at Asu-ACR-16 nAChR [1] was determined as 39.83 ± 1.49%.

At Asu-ACR-16 nAChR [2], `CC(=O)OCC[N+](C)(C)C` [acetylcholine] registered a concentration giving a half-maximal response (EC50) of 7.89 ± 1.02 µM.

As for `Cc1ccc(C(C)C)cc1O` [carvacrol], the “Emax of ACh at 100 μM carvacrol (% of response to 100 μM ACh)” value on Asu-ACR-16 nAChR [3] is reported as 73.09 ± 1.87%.
